The target of the experiment is T1, BmTMEM214 (BmTEME214) (Bombyx mori, UniProt A0A8R1WLS5).
T1 construct: immobilised on biosensor
T1 sequence (A0A8R1WLS5 1-663): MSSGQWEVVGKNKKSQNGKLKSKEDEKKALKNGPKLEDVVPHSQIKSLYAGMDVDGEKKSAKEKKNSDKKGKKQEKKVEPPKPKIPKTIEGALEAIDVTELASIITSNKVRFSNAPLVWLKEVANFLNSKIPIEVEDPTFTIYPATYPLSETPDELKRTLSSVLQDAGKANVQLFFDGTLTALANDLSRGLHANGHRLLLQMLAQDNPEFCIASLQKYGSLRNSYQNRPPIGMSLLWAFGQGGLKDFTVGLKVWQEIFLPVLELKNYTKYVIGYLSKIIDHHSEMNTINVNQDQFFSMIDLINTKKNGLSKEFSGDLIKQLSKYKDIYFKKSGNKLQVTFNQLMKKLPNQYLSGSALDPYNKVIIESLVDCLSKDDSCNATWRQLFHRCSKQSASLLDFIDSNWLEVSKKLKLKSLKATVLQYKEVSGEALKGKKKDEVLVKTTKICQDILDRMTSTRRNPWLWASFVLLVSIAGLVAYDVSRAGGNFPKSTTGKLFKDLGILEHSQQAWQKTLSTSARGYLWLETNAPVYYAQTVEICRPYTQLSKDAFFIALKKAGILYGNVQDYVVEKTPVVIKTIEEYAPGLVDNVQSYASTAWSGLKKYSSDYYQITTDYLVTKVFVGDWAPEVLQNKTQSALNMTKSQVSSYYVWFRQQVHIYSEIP
As to the kind of experiment: bio-layer interferometry, immobilised protein. The experiment is classed as binding. The source says: bio-layer interferometry, immobilised protein on BmTMEM214 (BmTEME214)
A general note: In BLI a coated tip is dipped into the sample, and binding shifts an interference pattern.

Results on one compound are retold here after article PMC8227659, “The Metarhizium anisopliae Toxin, Destruxin A, Interacts with the SEC23A and TEME214 Proteins of Bombyx mori” (Journal of Fungi, 2021).

Where a SMILES comes first, the peptide text is derived from it. [ ]: non-standard residue; d: D form. dLac(3-vinyl) = C=CC[C@@H](O)C(=O)O; NMeV = CN[C@H](C(=O)O)C(C)C; NMeA = CN[C@@H](C)C(=O)O; βAla = NCCC(=O)O

The term Kd denotes the concentration at which binding is half-saturated. A higher Kd goes with lower affinity.

In turn, `C=CC[C@H]1OC(=O)CCNC(=O)[C@H](C)N(C)C(=O)[C@H](C(C)C)N(C)C(=O)[C@H]([C@@H](C)CC)NC(=O)[C@@H]2CCCN2C1=O` [DA, Destruxin A] (cyclo(I[NMeV][NMeA][βAla][dLac(3-vinyl)]P)) gave a dissociation constant Kd of 0.286 µM. That is a sub-micromolar value.
